Measured values: BindingDB's records for doi:10.1021/jm800369f (Amgen, 2008)

Biological target: Corticosteroid 11-beta-dehydrogenase isozyme 1
Assay: Inhibition of human recombinant 11beta-HSD1 expressed in Pichia pastoris

IC50: 14 nM
SMILES: O=C(Nc1cccc(C(=O)N2CCC[C@H]3CCCC[C@@H]32)c1)c1ccccc1 [N-(3-((4aR,8aS)-decahydroquinoline-1-carbonyl)phenyl)benzamide]
